Measurements published in patent US12171756B2, “NLRP3 modulators” (Innate Tumor Immunity, Inc., priority 2017, dated 2024).
pEC50, pIC50: −log10 of the molar value. Where two headings read alike, the source gives them in different places.

How the values were obtained:
[1] = target: T1, human TLR7 (Homo sapiens, UniProt Q9NYK1); experiment: In vitro human TLR7 binding reporter assay (HEK-Blue, NF-kB/AP1-inducible SEAP); type: cell-based; conditions: HEK-Blue human TLR7 SEAP reporter cells; activity range classes; read-out: TLR7 Agonist EC50
T1 construct: host or cells: human HEK-Blue cells (HEK293-derived) co-expressing TLR7 and an NF-kB/AP1-inducible SEAP reporter
T1 sequence (Q9NYK1 27-1049): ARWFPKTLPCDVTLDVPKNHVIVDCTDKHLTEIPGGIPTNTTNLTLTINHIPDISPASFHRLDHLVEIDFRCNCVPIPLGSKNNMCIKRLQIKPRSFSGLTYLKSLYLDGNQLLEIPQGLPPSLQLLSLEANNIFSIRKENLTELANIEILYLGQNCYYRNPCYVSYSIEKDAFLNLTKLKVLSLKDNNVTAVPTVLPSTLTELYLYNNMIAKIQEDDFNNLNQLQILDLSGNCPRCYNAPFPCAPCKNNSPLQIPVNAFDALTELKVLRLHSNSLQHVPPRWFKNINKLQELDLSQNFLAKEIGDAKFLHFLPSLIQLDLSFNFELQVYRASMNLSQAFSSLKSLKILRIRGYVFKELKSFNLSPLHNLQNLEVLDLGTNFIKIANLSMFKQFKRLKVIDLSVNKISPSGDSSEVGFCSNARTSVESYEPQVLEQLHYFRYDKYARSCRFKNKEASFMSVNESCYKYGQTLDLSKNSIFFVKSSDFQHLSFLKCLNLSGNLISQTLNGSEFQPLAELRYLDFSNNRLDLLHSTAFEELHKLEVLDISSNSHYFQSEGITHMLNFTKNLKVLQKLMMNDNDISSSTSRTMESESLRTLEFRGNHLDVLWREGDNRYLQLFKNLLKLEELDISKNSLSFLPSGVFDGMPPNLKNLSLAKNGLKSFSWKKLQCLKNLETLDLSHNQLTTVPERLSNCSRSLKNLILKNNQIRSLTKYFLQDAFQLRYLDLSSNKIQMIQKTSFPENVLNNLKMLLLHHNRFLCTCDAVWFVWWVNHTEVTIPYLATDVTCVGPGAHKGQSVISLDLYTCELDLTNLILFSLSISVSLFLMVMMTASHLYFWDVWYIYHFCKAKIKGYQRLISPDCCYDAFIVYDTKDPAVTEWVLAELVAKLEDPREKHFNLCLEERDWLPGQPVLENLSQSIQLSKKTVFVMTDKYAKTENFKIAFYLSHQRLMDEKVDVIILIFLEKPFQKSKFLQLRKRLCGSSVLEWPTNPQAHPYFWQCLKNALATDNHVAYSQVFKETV
How it was run: (§1)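 EC50s come from NF-kB/AP1-driven SEAP secretion in HEK-Blue cells expressing TLR7 or TLR8, measured with Quanti-Blue after an 18 h compound incubation. Maximal response is defined by a 50 μM reference standard.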

[2] = target: T2, human TLR8 (Homo sapiens, UniProt Q9NR97); experiment: In vitro human TLR8 binding reporter assay (HEK-Blue, NF-kB/AP1-inducible SEAP); type: cell-based; conditions: HEK-Blue human TLR8 SEAP reporter cells; activity range classes; read-out: TLR8 Agonist EC50
T2 construct: host or cells: human HEK-Blue cells (HEK293-derived) co-expressing TLR8 and an NF-kB/AP1-inducible SEAP reporter
T2 sequence (Q9NR97 27-1041): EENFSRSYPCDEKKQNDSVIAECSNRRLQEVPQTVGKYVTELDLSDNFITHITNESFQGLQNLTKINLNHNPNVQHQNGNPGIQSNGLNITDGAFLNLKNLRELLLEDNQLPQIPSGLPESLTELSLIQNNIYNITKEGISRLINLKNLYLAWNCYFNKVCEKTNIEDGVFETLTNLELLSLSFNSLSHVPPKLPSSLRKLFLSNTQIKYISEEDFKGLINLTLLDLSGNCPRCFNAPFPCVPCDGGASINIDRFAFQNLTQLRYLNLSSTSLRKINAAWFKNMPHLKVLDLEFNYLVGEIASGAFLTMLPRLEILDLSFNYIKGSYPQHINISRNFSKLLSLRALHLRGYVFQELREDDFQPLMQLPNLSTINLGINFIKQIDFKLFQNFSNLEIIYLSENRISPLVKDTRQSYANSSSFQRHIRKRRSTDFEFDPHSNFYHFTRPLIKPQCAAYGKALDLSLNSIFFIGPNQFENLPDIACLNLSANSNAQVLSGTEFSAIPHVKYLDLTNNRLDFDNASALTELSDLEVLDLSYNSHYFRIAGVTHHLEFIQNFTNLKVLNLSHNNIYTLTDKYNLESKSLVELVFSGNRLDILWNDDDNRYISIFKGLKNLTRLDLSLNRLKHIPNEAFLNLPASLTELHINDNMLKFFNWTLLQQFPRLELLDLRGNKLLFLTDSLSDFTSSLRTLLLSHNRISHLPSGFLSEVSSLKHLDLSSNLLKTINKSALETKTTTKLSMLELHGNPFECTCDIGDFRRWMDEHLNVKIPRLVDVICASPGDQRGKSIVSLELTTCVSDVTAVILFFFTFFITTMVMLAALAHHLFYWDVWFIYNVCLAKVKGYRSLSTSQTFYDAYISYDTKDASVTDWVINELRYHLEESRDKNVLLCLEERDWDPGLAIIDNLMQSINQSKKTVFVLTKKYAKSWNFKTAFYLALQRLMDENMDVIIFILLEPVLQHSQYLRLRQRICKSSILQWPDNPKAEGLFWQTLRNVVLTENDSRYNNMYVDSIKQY
How it was run: as §1

[3] = tested on: IL-1β production in PMA-differentiated THP-1 cells; experiment: Measurement of IL-1β production in PMA-differentiated THP-1 cells (ELISA, 4 hours); type: cell-based, human; conditions: assayed using one or more of the described procedures, read-out: NLRP3 hIL1B IC50
How it was run: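 IL-1β released into supernatant was measured by ELISA after a 4-hour compound exposure (final DMSO 1%, concentrations such as 100 down to 0.1 μM). Cells: THP-1 pretreated 24 h with 10 μg/ml PMA, then trypsinized and seeded at 1×10^6/ml in 2% FBS RPMI.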

[4] = Homo sapiens, THP-1, human IL-1β production

Row | Compound | pEC50 [1] | pEC50 [2] | pIC50 [3, 4] | pIC50 ([3]; human IL-1β production)
1 | Nc1cc(NCc2ncco2)c2ccc(-c3ccn[nH]3)cc2n1 [Compound 249] | < 4.00 | < 4.00 | 7.30 | –
2 | Nc1nc2cc(-c3cc[nH]n3)ccc2cc1CCCCOCc1ccccc1 [Compound 105, 3-[4-(benzyloxy)butyl]-7-(1H-pyrazol-3-yl)quinolin-2-amine] | < 4.00 | < 4.00 | 5.53 | –
3 | Nc1cc(OCCCCN2CCS(=O)(=O)CC2)c2ccc(-c3ccn[nH]3)cc2n1 [Compound 180] | < 4.00 | < 4.00 | 5.01 | –
4 | COCCCOc1cc(N)nc2cc(-c3ccn[nH]3)ccc12 [Compound 193] | < 4.00 | < 4.00 | 5.77 | –
5 | Nc1cc(OCCCO)c2ccc(-c3ccn[nH]3)cc2n1 [Compound 179] | < 4.00 | < 4.00 | 6.11 | –
6 | Cc1nc(CNc2cc(N)nc3cc(-c4ccn[nH]4)ccc23)cs1 [Compound 156] | < 4.00 | < 4.00 | 6.70 | –
7 | Nc1cc(NC[C@@H]2CNCCO2)c2ccc(-c3ccn[nH]3)cc2n1 [Compound 267] | < 4.00 | < 4.00 | 5.80 | –
8 | Nc1cc(NCCNC(=O)c2ccccn2)c2ccc(-c3ccn[nH]3)cc2n1 [Compound 204] | < 4.00 | < 4.00 | 6.19 | –
9 | Nc1cc(NCc2ncc[nH]2)c2ccc(-c3ccn[nH]3)cc2n1 [Compound 240] | < 4.00 | < 4.00 | 6.62 | –
10 | Nc1cc(N2CCCOCC2)c2ccc(-c3ccn[nH]3)cc2n1 [Compound 265] | < 4.00 | < 4.00 | 6.46 | –
11 | Nc1cc(N[C@@H]2CCCC[C@H]2O)c2ccc(-c3ccn[nH]3)cc2n1 [Compound 162] | < 4.00 | < 4.00 | 5.60 | –
12 | CN(C)C(=O)CCNc1cc(N)nc2cc(-c3ccn[nH]3)ccc12 [Compound 138] | 4.70 to 6.00 | < 4.00 | 5.23 | –
13 | Nc1cc(NCCCn2cncn2)c2ccc(-c3ccn[nH]3)cc2n1 [Compound 231] | < 4.00 | < 4.00 | 5.90 | –
14 | Nc1cc(NCCNC(=O)c2ccccc2)c2ccc(-c3ccn[nH]3)cc2n1 [Compound 146] | < 4.00 | < 4.00 | 5.39 | –
15 | CS(=O)(=O)Nc1ccc(CNc2cc(N)nc3cc(-c4ccn[nH]4)ccc23)cc1 [Compound 258] | < 4.00 | < 4.00 | 5.74 | –
16 | Nc1cc(N[C@@H]2CC[C@H](O)C2)c2ccc(-c3ccn[nH]3)cc2n1 [Compound 247] | < 4.00 | < 4.00 | 6.32 | –
17 | CC(=O)NCCCNc1cc(N)nc2cc(-c3ccn[nH]3)ccc12 [Compound 213, N-(3-((2-amino-7-(1H-pyrazol-5-yl)quinolin-4-yl)amino)propyl)acetamide, 2TFA] | < 4.00 | < 4.00 | 5.81 | –
18 | 3-[4-amino-7-(1H-pyrazol-3-yl)-[1,3]oxazolo[4,5-c]quinolin-2-yl]propan-1-ol [Compound 107] | < 4.00 | < 4.00 | – | 6.47
19 | Nc1cc(NCCn2cncn2)c2ccc(-c3ccn[nH]3)cc2n1 [Compound 163] | < 4.00 | < 4.00 | 6.80 | –
20 | Nc1cc(OCCCn2cccn2)c2ccc(-c3ccn[nH]3)cc2n1 [Compound 196] | < 4.00 | < 4.00 | 5.95 | –
21 | CN(C)C(=O)NCCNc1cc(N)nc2cc(-c3ccn[nH]3)ccc12 [Compound 208, 3-(2-((2-amino-7-(1H-pyrazol-5-yl)quinolin-4-yl)amino)ethyl)-1,1-dimethylurea] | < 4.00 | < 4.00 | 5.81 | –
22 | Nc1cc(NCc2cccc(F)c2)c2ccc(-c3ccn[nH]3)cc2n1 [Compound 260] | < 4.00 | < 4.00 | 6.49 | –

Other lines, results leading:

Row | pEC50 [1] | pEC50 [2] | pIC50 [3, 4] | pIC50 ([3]; human IL-1β production) | Compound
23 | < 4.00 | < 4.00 | 6.47 | – | Nc1cc(NCc2cc[nH]n2)c2ccc(-n3cccn3)cc2n1 [Compound 292]
24 | < 4.00 | < 4.00 | 5.94 | – | Nc1cc(NC[C@H]2COCCN2)c2ccc(-c3ccn[nH]3)cc2n1 [Compound 269]
25 | < 4.00 | < 4.00 | 6.68 | – | Nc1cc(NCc2nc[nH]n2)c2ccc(-n3cccn3)cc2n1 [Compound 294]
26 | < 4.00 | < 4.00 | 6.85 | – | Cc1nc(CNc2cc(N)nc3cc(-n4cccn4)ccc23)cs1 [Compound 303]
27 | < 4.00 | < 4.00 | – | 4.94 | Nc1cc(NC2CCNC2)c2ccc(-c3ccn[nH]3)cc2n1 (stereo in doubt) [Compound 321, (S)-7-(1H-pyrazol-3-yl)-N4-(pyrrolidin-3-yl)quinoline-2,4-diamine]
28 | < 4.00 | < 4.00 | 5.14 | – | Nc1cc(-c2cnn(CCO)c2)c2ccc(-c3ccn[nH]3)cc2n1 [Compound 348, 2-(4-(2-amino-7-(1H-pyrazol-5-yl)quinolin-4-yl)-1H-pyrazol-1-yl)ethan-1-ol]
29 | < 4.00 | < 4.00 | 4.88 | – | Nc1cc(N2CCCNCC2)c2ccc(-c3cc[nH]n3)cc2n1 [Compound 286]
30 | < 4.00 | < 4.00 | 5.47 | – | Nc1cc(NCC2(CO)COC2)c2ccc(-c3ccsc3)cc2n1 [Compound 338, (3-(((2-amino-7-(thiophen-3-yl)quinolin-4-yl)amino)methyl)oxetan-3-yl)methanol]
31 | < 4.00 | < 4.00 | 5.75 | – | Nc1cc(N[C@H]2CCCNC2)c2ccc(-c3ccn[nH]3)cc2n1 [Compound 324]
32 | < 4.00 | < 4.00 | 6.41 | – | Nc1cc(N[C@H]2CCCOC2)c2ccc(-c3ccn[nH]3)cc2n1 [Compound 288]
33 | < 4.00 | < 4.00 | 5.88 | – | Nc1cc(OCC2(CO)COC2)c2ccc(-c3ccn[nH]3)cc2n1 [Compound 333]
